Reference: publication PMC9760444, “Direct targeting of sEH with alisol B alleviated the apoptosis, inflammation, and oxidative stress in cisplatin-induced acute kidney injury” (International Journal of Biological Sciences, 2023)

Molecular target: T1, soluble epoxide hydrolase (sEH) (Homo sapiens, UniProt P34913)
T1 construct: gene EPHX2; Recombinant human sEH
T1 sequence (P34913 1-555): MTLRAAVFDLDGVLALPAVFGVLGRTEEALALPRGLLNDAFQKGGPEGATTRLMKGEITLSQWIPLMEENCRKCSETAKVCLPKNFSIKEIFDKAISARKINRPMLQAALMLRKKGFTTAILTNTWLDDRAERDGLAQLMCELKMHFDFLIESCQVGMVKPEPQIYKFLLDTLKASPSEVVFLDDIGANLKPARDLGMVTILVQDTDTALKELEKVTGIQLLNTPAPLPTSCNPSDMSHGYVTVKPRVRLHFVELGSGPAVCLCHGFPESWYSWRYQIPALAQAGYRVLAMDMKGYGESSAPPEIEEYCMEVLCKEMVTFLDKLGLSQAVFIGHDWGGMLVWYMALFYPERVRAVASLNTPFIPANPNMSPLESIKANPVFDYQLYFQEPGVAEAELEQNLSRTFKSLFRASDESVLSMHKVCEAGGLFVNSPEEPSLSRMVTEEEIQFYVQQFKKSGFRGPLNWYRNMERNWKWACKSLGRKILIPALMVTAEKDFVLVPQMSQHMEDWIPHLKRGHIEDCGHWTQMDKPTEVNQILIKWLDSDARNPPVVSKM
Assay: SPR (Biacore T200); supported by inhibition kinetics (Ki […]), pull-down, CETSA, SIP, DARTS
Type: binding

Kd: 1320 nM
SMILES: C[C@H](C[C@H](O)[C@H]1OC1(C)C)C1=C2C[C@H](O)[C@H]3[C@@]4(C)CCC(=O)C(C)(C)[C@@H]4CC[C@]3(C)[C@@]2(C)CC1 [alisol B]
